Results taken from patent US10052306B2 (LUC THERAPEUTICS, INC., priority 2013, dated 2018).
pIC50: −log10 of the molar value.

Molecular target: NR1/NR2B (Homo sapiens (Human), UniProt Q05586+Q13224)
Assay: Cell assay: FDSS Ca2+ influx inhibition in HEK293 cells expressing NR1/NR2B;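 note: Fluo-8 Ca2+ signal read on Hamamatsu FDSS 6000 after glutamate, glycine and Ca2+ challenge following 10 min compound preincubation, end/baseline fluorescence ratio compared with MK801 control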
Details: Ca2+ influx
[1] = Binned Activity, HEK293 cells expressing NR1/NR2B, binned NR2B NAM IC50
[2] = NR2B NAM IC50, HEK293 cells expressing NR1/NR2B

Chain of NR1/NR2B (Q13224 27-1484, other chains not shown): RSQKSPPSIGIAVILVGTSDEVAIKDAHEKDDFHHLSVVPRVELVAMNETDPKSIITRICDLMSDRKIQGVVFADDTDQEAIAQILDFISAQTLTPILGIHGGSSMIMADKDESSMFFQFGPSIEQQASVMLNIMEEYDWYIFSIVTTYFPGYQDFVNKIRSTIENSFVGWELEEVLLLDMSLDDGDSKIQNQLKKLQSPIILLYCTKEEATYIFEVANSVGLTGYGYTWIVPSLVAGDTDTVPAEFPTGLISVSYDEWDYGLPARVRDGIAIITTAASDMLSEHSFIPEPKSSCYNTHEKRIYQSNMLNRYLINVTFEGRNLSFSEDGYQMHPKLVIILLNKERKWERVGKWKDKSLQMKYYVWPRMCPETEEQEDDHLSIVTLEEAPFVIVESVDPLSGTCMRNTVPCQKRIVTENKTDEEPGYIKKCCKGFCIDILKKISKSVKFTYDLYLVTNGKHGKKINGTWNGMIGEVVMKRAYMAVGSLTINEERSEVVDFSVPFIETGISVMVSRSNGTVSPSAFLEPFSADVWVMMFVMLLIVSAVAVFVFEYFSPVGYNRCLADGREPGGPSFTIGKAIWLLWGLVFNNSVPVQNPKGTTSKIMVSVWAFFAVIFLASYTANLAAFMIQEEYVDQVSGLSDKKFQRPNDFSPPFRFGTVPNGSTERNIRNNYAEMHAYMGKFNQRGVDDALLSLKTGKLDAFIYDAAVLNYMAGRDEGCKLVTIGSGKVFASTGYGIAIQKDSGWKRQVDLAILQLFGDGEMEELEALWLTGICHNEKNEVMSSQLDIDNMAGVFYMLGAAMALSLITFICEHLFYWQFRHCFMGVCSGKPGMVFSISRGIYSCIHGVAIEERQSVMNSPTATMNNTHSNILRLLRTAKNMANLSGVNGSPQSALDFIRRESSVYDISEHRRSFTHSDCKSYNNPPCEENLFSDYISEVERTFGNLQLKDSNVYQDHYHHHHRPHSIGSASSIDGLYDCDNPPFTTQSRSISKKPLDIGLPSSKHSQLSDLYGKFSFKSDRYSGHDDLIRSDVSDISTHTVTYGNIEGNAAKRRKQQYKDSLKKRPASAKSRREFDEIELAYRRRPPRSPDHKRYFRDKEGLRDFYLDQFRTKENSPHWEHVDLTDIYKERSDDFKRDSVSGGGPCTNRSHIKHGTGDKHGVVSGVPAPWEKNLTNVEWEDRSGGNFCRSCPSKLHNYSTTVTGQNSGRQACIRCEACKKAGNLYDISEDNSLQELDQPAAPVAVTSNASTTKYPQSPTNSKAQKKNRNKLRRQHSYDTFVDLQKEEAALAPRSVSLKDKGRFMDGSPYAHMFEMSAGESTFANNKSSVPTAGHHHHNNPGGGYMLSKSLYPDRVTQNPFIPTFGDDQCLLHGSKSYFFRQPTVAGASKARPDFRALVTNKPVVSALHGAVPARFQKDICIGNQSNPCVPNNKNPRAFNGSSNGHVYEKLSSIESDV

Compound | pIC50 [1] | pIC50 [2]
COc1cccc([C@]2(O)C[C@H]3CN(CC(O)c4ccc(Cl)cc4Cl)C[C@H]3C2)c1 (mixture of isomers) [Example 74, rac-2-[2-(2,4-dichlorophenyl)-2-hydroxyethyl]-5-(3-methoxyphenyl)-octahydrocyclopenta[c] pyrrol-5-ol] | < 5.00 | ≤ 5.00
Oc1ccc(C(O)CN2C[C@@H]3C[C@@](O)(CC4CC4)C[C@@H]3C2)cc1 (mixture of isomers) [Example 211, rac-(3aR,5r,6aS)-5-(cyclopropylmethyl)-2-(2-hydroxy-2-(4-hydroxyphenyl)ethyl) octahydrocyclopenta [c]pyrrol-5-ol] | < 5.00 | ≤ 5.00
COc1cccc([C@]2(O)C[C@H]3CN(C(=O)Nc4ccc(Cl)c(C(F)(F)F)c4)C[C@H]3C2)c1 [Example 34, N-[4-chloro-3-(trifluoromethyl)phenyl]-5-hydroxy-5-(3-methoxyphenyl)-octahydrocyclopenta[c] pyrrole-2-carboxamide] | < 5.00 | –
COc1cccc(C[C@]2(O)C[C@H]3CN(CC(O)c4ccc(O)c(F)n4)C[C@H]3C2)c1 (mixture of isomers) [Example 201, rac-(3aR,5r,6aS)-2-(2-(6-fluoro-5-hydroxypyridin-2-yl)-2-hydroxyethyl)-5-(3-methoxy-benzyl)octahydro-cyclopenta[c]pyrrol-5-ol] | – | 6.42
OC(CN1C[C@@H]2C[C@@](O)(c3ccccc3)C[C@@H]2C1)c1cccc(F)c1 (mixture of isomers) [Example 64, rac-2-[2-(3-fluorophenyl)-2-hydroxyethyl]-5-phenyl-octahydrocyclopenta[c] pyrrol-5-ol] | < 5.00 | ≤ 5.00
N#Cc1cccc(NC(=O)N2C[C@@H]3C[C@@](O)(Cc4ccccc4)C[C@@H]3C2)c1 [Example 123, (3aR,5r,6aS)-5-benzyl-N-(3-cyanophenyl)-5-hydroxyhexahydrocyclo-penta[c]pyrrole-2(1H)-carboxamide] | < 5.00 | ≤ 5.00
Oc1ccc(C(O)CN2C[C@H]3C[C@H](Cc4ccccc4)C[C@H]3C2)cc1F (mixture of isomers) [Example 302, rac-4-{2-[(3aR,5R,6aS)-5-benzyl-octahydrocyclopenta[c]pyrrol-2-yl]-1-hydroxyethyl}-2-fluorophenol] | – | 7.70
CC(C(O)c1ccc(O)cc1)N1C[C@@H]2C[C@@](O)(c3ccc(C(C)(C)C)cc3)C[C@@H]2C1 (mixture of isomers) [Example 96, rac-5-(4-tert-butylphenyl)-2-[1-hydroxy-1-(4-hydroxyphenyl)propan-2-yl]-octahydrocyclopenta[c] pyrrol-5-ol] | – | 4.98
Cc1ccc(C[C@]2(O)C[C@H]3CN(CC(=O)c4ccc(O)cc4)C[C@H]3C2)cc1 [Example 179] | > 7.00 | –
Cc1cc(C)cc(C[C@]2(O)C[C@H]3CN(CC(O)c4ccc(O)cn4)C[C@H]3C2)c1 (mixture of isomers) [Example 208, rac-6-{2-[(3aR,5R,6aS)-5-[(3,5-dimethylphenyl)methyl]-5-hydroxy-octahydrocyclopenta[c]pyrrol-2-yl]-1-hydroxyethyl}pyridin-3-ol-3-ol] | – | 6.18
O=C(Nc1ccc(F)cc1)N1C[C@@H]2C[C@@](O)(c3ccc(F)cc3)C[C@@H]2C1 [Example 35, N,5-bis(4-fluorophenyl)-5-hydroxy-octahydrocyclopenta[c] pyrrole-2-carboxamide] | < 5.00 | –
O=C(Nc1cccnc1)N1C[C@@H]2C[C@@](O)(c3ccc(F)cc3)C[C@@H]2C1 [Example 41] | < 5.00 | ≤ 5.00
COc1cccc([C@]2(O)C[C@H]3CN(C(=O)Nc4cccc(C(F)(F)F)c4)C[C@H]3C2)c1 [Example 16] | < 5.00 | ≤ 5.00
O=C1CCc2cc(C(O)CN3C[C@@H]4C[C@@](O)(Cc5ccccc5)C[C@@H]4C3)ccc2N1 (mixture of isomers) [Example 153, rac-6-(2-((3aR,5r,6aS)-5-benzyl-5-hydroxyhexahydrocyclo-penta[c]pyrrol-2(1H)-yl)-1-hydroxyethyl)-3,4-dihydroquinolin-2(1H)-one] | – | 7.40
Oc1ccc(C(O)CN2C[C@@H]3C[C@@](O)(c4ccccc4)C[C@@H]3C2)cc1 (mixture of isomers) [Example 67, rac-2-[2-hydroxy-2-(4-hydroxyphenyl)ethyl]-5-phenyl-octahydrocyclopenta[c] pyrrol-5-ol] | < 5.00 | ≤ 5.00
CC(C(O)c1ccc(O)cc1)N1C[C@@H]2C[C@](F)(Cc3ccccc3)C[C@@H]2C1 (mixture of isomers) [Example 318, rac-4-(2-((3aR,5s,6aS)-5-benzyl-5-fluoro-hexahydrocyclopen-ta[c]pyrrol-2(1H)-yl)-1-hydroxypropyl)phenol] | – | 4.89
[2H]C(O)(CN1C[C@@H]2C[C@@](O)(Cc3ccccc3)C[C@@H]2C1)c1ccc(O)cc1 (mixture of isomers) [Example 281, deuterated rac-(3aR,6aS)-5-benzyl-2-((S)-2-hydroxy-2-(4-hydroxyphenyl)ethyl) octahydrocyclopenta [c]pyrrol-5-ol] | > 7.00 | 7.76

Compound | pIC50 [1] | pIC50 [2]
Oc1ccc(C(O)CN2C[C@@H]3C[C@@](O)(Cc4ccc(Cl)cc4)C[C@@H]3C2)nc1 (mixture of isomers) [Example 223, rac-(3aR,5r,6aS)-5-(4-chlorobenzyl)-2-(2-hydroxy-2-(5-hydroxypyridin-2-yl)ethyl)octahydrocyclo-penta[c]pyrrol-5-ol] | > 7.00 | 7.94
Oc1ccc(C(O)CN2C[C@@H]3C[C@@](O)(Cc4ccc(F)c(F)c4)C[C@@H]3C2)cc1 (mixture of isomers) [Example 253, rac-(3aR,5r,6aS)-5-(3,4-difluorobenzyl)-2-(2-hydroxy-2-(4-hydroxyphenyl)ethyl) octahydrocyclopenta[c] pyrrol-5-ol] | – | 7.50
COc1cccc(C[C@]2(O)C[C@H]3CN(CC(O)c4ccc(O)cn4)C[C@H]3C2)c1 (mixture of isomers) [Example 196, rac-((3aR,r,6aS)-2-(2-hydroxy-2-(5-hydroxypyridin-2-yl)ethyl)-5-(3-meth-oxybenzyl)octahydro-cyclopenta[c]pyrrol-5-ol] | – | 7.18
Cc1ccccc1C[C@]1(O)C[C@H]2CN(CC(O)c3ccc(O)cc3)C[C@H]2C1 (mixture of isomers) [Example 185, rac-(3aR,5r,6aS)-2-(2-hydroxy-2-(4-hydroxyphenyl)ethyl)-5-(2-methylbenzyl)octahydro-cyclopenta[c]pyrrol-5-ol] | – | 7.46
COc1cccc([C@]2(O)C[C@H]3CN(C(C)C(O)c4ccc(O)cc4)C[C@H]3C2)c1 (mixture of isomers) [Example 78, rac-2-(1-hydroxy-1-(4-hydroxyphenyl)propan-2-yl)-5-(3-methoxy-phenyl)octahydro-cyclopenta[c]pyrrol-5-ol] | < 5.00 | ≤ 5.00
COc1cccc([C@]2(O)C[C@H]3CN(CC(O)c4ccccc4)C[C@H]3C2)c1 (mixture of isomers) [Example 60, rac-2-(2-hydroxy-2-phenylethyl)-5-(3-methoxyphenyl)-octahydrocyclopenta[c] pyrrol-5-ol] | < 5.00 | ≤ 5.00
Oc1ccc(C(O)CN2C[C@@H]3C[C@@](O)(Cc4ccccc4F)C[C@@H]3C2)cc1 (mixture of isomers) [Example 229, rac-(3aR,5r,6aS)-5-(2-fluorobenzyl)-2-(2-hydroxy-2-(4-hy-droxyphenyl)ethyl)octa-hydrocyclopenta[c] pyrrol-5-ol] | > 7.00 | 7.81
Oc1ccc(C(O)CN2C[C@@H]3C[C@@](O)(Cc4cccs4)C[C@@H]3C2)nc1 (mixture of isomers) [Example 215, rac-2-(2-hydroxy-2-(5-hydroxypyridin-2-yl)ethyl)-5-(thiophen-2-ylmethyl)octahydrocyclo-penta[c]pyrrol-5-ol] | – | 7.59
Oc1ccc(C(O)CN2C[C@H]3CN(Cc4ccccc4)C[C@H]3C2)cc1F (mixture of isomers) [Example 341, rac-4-(2-(5-benzylhexahydropyrrolo [3,4-c]pyrrol-2(1H)-yl)-1-hydroxyethyl)-2-fluorophenol] | > 7.00 | 7.13
Oc1ccc(C(O)CN2C[C@@H]3C[C@@](O)(Cc4ccc(F)cc4F)C[C@@H]3C2)nc1 (mixture of isomers) [Example 233, rac-(3aR,5r,6aS)-5-(2,4-difluorobenzyl)-2-(2-hydroxy-2-(5-hydroxypyridin-2-yl)ethyl)octahydrocyclo-penta[c]pyrrol-5-ol] | > 7.00 | 7.52
Oc1ccc(C(O)CN2C[C@@H]3C[C@@](O)(CCc4ccccc4)C[C@@H]3C2)cc1 (mixture of isomers) [Example 321, rac-2-(2-hydroxy-2-(4-hydroxyphenyl)ethyl)-5-phenethyloctahydro-cyclopenta[c] pyrrol-5-ol] | < 5.00 | ≤ 5.00
COc1cccc(C[C@]2(O)C[C@H]3CN(CC(O)c4ccc(O)cc4)C[C@H]3C2)c1 (mixture of isomers) [Example 195, rac-(3aR,5r,6aS)-2-(2-hydroxy-2-(4-hydroxyphenyl)ethyl)-5-(3-methoxy-benzyl)octahydro-cyclopenta[c]pyrrol-5-ol] | – | 7.54
Oc1ccc(C(O)CN2C[C@@H]3C[C@@](O)(CC4CCCCC4)C[C@@H]3C2)nc1 (mixture of isomers) [Example 214, rac-6-{2-[(3aR,5R,6aS)-5-(cyclohexylmethyl)-5-hydroxy-octahydrocyclopenta[c]pyrrol-2-yl]-1-hydroxyethyl}pyridin-3-ol] | – | 5.58
COc1cccc([C@]2(O)C[C@H]3CN(C(=O)Nc4ccc(C)cc4)C[C@H]3C2)c1 [Example 14] | < 5.00 | ≤ 5.00
O=C(Nc1cccc(C(F)(F)F)c1)N1C[C@@H]2C[C@@](O)(c3ccc(F)cc3)C[C@@H]2C1 [Example 38] | < 5.00 | ≤ 5.00
CC(C)(C)c1ccc([C@]2(O)C[C@H]3CN(CC(O)c4cccc(C(F)(F)F)c4)C[C@H]3C2)cc1 (mixture of isomers) [Example 70, rac-5-(4-(tert-butyl)phenyl)-2-(2-hydroxy-2-(3-(trifluoromethyl)phenyl)ethyl)octahydrocyclo-penta[c]pyrrol-5-ol] | < 5.00 | ≤ 5.00
